# Results: US20160331662A1, “Compositions that Inhibit and Prevent the Formation of Dental Caries and Methods of Using the Same” (priority 2014, published 2016)
# Assays:
# S. mutans UA159 [1] = experiment: Aggregation assay (OD700 over 60 min); type: cell-based; details: iSRCR 10 μM or SAG, 6 mM CaCl2
# Method: (§1) Aggregation assays were performed as described earlier with slight modifications. Briefly, S. mutans UA159 and S. gordonii DL1 cells were grown in TSY broth media overnight at 37° C. in the presence of 5% CO2. The bacteria were centrifuged at 5000×g and washed with a buffer containing 20 mM HEPES pH 7.4, 150 mM NaCl and re-suspended to an approximate OD700 of 1. The bacterial suspension (900 μl) was mixed with 100 μl of SAG or iSRCR1 (10 μM) or iSRCR123 ([…]) or commercially synthesized (Think Peptides, Inc) SRCRP2 peptide with fluorescein amidite (FAM) at the carboxyl end ([…]-[FAM]) (SEQ ID NO:9, at both 400 μg/ml and 1 mg/ml) in the presence of 6 mM CaCl2 and aggregation was measured by recording OD700over 60 min at 5 min intervals, where the buffer alone was used as control. All experiments were carried out at least five times, and the results were analyzed with One-way ANOVA. Post-hoc testing where *, P<0.05 was considered statistically significant and results were presented as the percentage of cells aggregated.
# S. gordonii DL1 [2] = experiment: Aggregation assay (OD700 over 60 min); type: cell-based; details: iSRCR 10 μM or SAG, 6 mM CaCl2
# Method: as §1
# [3] = Differential scanning calorimetry, thermostability of SRCRs with calcium; type: physicochemical; details: no added CaCl2
# Method: The thermostability of SRCRs in the presence of calcium ions was analyzed using Microcal MC-II differential scanning calorimeter (GE HealthCare, USA) as described earlier. Briefly, iSRCR1 or iSRCR123 at concentration of 1 mg/ml was mixed and incubated with different concentration of CaCl2 ranging from (0-100 mM) to final volume of 400 μl of buffer containing 20 mM HEPES, 150 mM NaCl), and buffer without SRCRs served as control. Data were recorded with calorimetric scanning rates that ranged from 30° C./h to 90° C./hat 30 psi pressure. The data collected was analyzed for the unfolding temperature (Tt), and the calorimetric (ΔHcal) and van't Hoff (ΔHv) unfolding enthalpies using the Origin software package (MicroCal).
# S. mutans UA159 [4] = experiment: Flow cytometric analysis of iSRCR adherence to bacteria; type: cell-based; details: 10 μM
# Method: (§2) S. mutans UA159 and S. gordonii DL1 cells were grown overnight in TSY broth media at 37° C. and washed thoroughly with FACS buffer (20 mM HEPES pH 7.4, 150 mM NaCl and 5% non-fat dry milk) to reduce non-specific binding. Subsequently, 10 μM of iSRCR1 or iSRCR123 were added to 100 μl of cells (1×10^7 cells/ml) in binding buffer (FACS buffer+2.5 mM CaCl2) and incubated for 60 min at 37° C. The cells were later washed thoroughly with binding buffer to remove unbound iSRCRs. Subsequently, Anti-His tag Alexafluor 488 antibody (1:50 dilution) (EMD Millipore, Inc) that adheres to the His tag present on SRCRs was added to the cells and incubated for 30 min, washed three times and resuspended in 200 μl of binding buffer. Samples without iSRCRs served as control. Samples were then assayed using the FACScan machine (BD Biosciences) at the Analytical and Preparative Cytometry Facility (APCF) at UAB, and data obtained was analyzed using FlowJo 7.2.4 software.
# S. gordonii DL1 [5] = experiment: as above; type: cell-based; details: 10 μM, compared with S. mutans
# Method: as §2
# S. mutans UA159 [6] = experiment: Confocal microscopy of iSRCR adherence to bacteria; type: cell-based; details: 10 μM
# Method: S. mutans UA159 and S. gordonii DL1 were grown overnight in TSY (30 g/L of Trypticase soy broth and 0.5 g/L yeast extract, pH 7.2) media on an eight-well Lab Tek Chamber slide system (Sigma). The cells were fixed with 3% paraformaldehyde, washed with binding buffer (20 mM HEPES pH 7.4, 150 mM NaCl and 2.5 mM CaCl2), and thereafter iSRCR1 or iSRCR123 (10 μM) were added to the cells and incubated for 60 min. The unbound SRCRs were removed by repeated washing using the binding buffer. Subsequently, Alexa fluor 488 conjugated Anti-His-tag antibody (EMD Millipore, Inc) (1:50 dilution) that can bind to the His Tag on SRCRs was added. After 60 min incubation the unbound antibody was washed away thoroughly using binding buffer, and the chamber walls were gently removed. Cover slips were then mounted with 15 μl of fluoromount-G with DAPI (Southern Biotech Inc) to stain bacterial nuclei and were sealed until ready to be imaged. The experiment without SRCRs served as control. All slides were imaged using Leica SP1 UV Confocal Laser Scanning Microscope and Zeiss LSM 710 Confocal Laser Scanning Microscope at the UAB-High resolution imaging facility (UAB-HRIF).
# [7] = test system: adhesion of SspB of S. gordonii to iSRCR123; experiment: Adherence/inhibition SPR: SspB fragments on immobilized iSRCR123; type: binding
# Method: (§3) Carbohydrates Galβ1-3-GalNac and Mannose (identified from glycan profile analysis) at different concentrations (0.010, 0.050, 0.1, 0.5 and 1 mM) were incubated with 2 μM of each FL, A3VP1 and C123 of AgI/II and SspB and the interaction with immobilized iSRCR1 and iSRCR123 with running buffer containing 20 mM HEPES, 150 mM NaCl and 2.5 mM CaCl2, pH 7.4 at 25° C. and with flow rate of 20 μl/min was analyzed. Direct adherence of these carbohydrates alone served as the control and all calculations were carried out using the BIAevaluation software. Using the same protocol above at varying concentrations the effect of SRCRP2 peptide on the adherence inhibition was assessed.
# [8] = molecular target: T1, AgI/II adherence to immobilized salivary agglutinin (Streptococcus mutans serotype c, UniProt P23504); experiment: SPR inhibition of SAG adherence of FL surface protein (Example 2); type: binding, S. mutans; details: 2 mM
# T1 construct: Recombinant full length (FL) constructs of surface proteins (homologs of AgI/II) AgI/II, SspB, Pas; made in house
# Method: (§4) Inhibition of SAG adherence to AgI/II, SspB, Pas, along with glucan binding protein C (GbpC) and collagen binding protein (rcnM) by Galβ1-3GalNac (core-1) was determined as is described in Example 1 and as described below.
# (§5) Recombinant full length (FL) constructs of surface proteins (homologs of AgI/II) AgI/II, SspB, Pas, along with GbpC (Glucan binding protein C) and rcnM (collagen binding protein) were incubated with various concentrations (0.010 mM to 2 mM) of Galβ1-3GalNac at room temperature and their binding interaction with immobilized salivary agglutinin on a CM5 sensor chip was determined.
# iSRCR1 = molecular target: T2, iSRCR1 (Homo sapiens, UniProt Q9UGM3); experiment: SPR binding of analytes to immobilized iSRCR1 (CM5 chip, 1:1 Langmuir); details: substance alone over CM5 chip
# T2 construct: strongly proves that a single SRCR domain contains the adherence sites for AgI/II and SspB; made in house; host or cells: Drosophila expression system
# Method: (§6) Real time binding analyses of the SRCR domains with AgI/II fragments were carried out using the BIAcore 2000 system. […] Self association of iSRCR1 or iSRCR123 (at 2 μM) were also determined in a similar manner as described above. Finally to determine the effect of calcium SPR analysis was carried out by dialyzing the analytes and ligands in binding buffer devoid of CaCl2.
# (§7) In addition, the SRCR holding two distinct surfaces compounded the elucidation of individual kinetics, and presently there are no modeling protocols available to determine the individual affinities for such a system, therefore for simplicity we have utilized a single site 1:1 Langmuir model. All experiments were carried out in triplicates and the kinetics of the association (KA) and dissociation (KD) rate constants were deduced using the 1:1 Langmuir Kinetic model on the BIA-Evaluation software. The concentration (C in μM) of analyte (FL^AgI/II or FL^SspB at 2 μM) that adhered to the immobilized ligand (iSRCR1, iSRCR123) within the flow cell was calculated using the formula C=(RU/MW)×(1/V), where RU is resonance unit (1 RU=1 pg of bound protein), MW is molecular weight of analyte and V is volume of flow cell (1.2×10^−10 L).
# [9] = molecular target: T3, adhesion of SspB of S. gordonii to iSRCR1 (Streptococcus gordonii, UniProt A8AUS1); type: binding; details: 1.0 mM; 2 μM protein
# T3 construct: made in house; host or cells: pET23d vector
# Method: as §3
# [10] = test system: adhesion of SspB of S. gordonii to iSRCR1; type: binding; details: lower concentrations 0.010 mM-0.500 mM
# Method: as §3
# [11] = molecular target: T4, Pas adherence to immobilized salivary agglutinin (Streptococcus intermedius, UniProt Q9KW51); experiment: SPR inhibition of SAG adherence of FL surface protein (Example 2); type: binding, S. intermedius; details: 2 mM
# T4 construct: Recombinant full length (FL) constructs of surface proteins (homologs of AgI/II) AgI/II, SspB, Pas; made in house
# Method: as §4, §5
# [12] = test system: adhesion of AgI/II of S. mutans to iSRCR123; experiment: Adherence/inhibition SPR: AgI/II fragments on immobilized iSRCR123; type: binding
# Method: as §3
# iSRCR123 = molecular target: T5, iSRCR123 (Homo sapiens, UniProt Q9UGM3); experiment: SPR binding of analytes to immobilized iSRCR123 (CM5 chip, 1:1 Langmuir); details: substance alone over CM5 chip
# T5 construct: multiple SRCR domains have better adherence capability compared to that of a single SRCR domain; made in house; host or cells: Drosophila expression system
# Method: as §6, §7
# [13] = test system: rcnM (collagen binding protein) adherence to immobilized salivary agglutinin; experiment: SPR inhibition of SAG adherence of FL surface protein (Example 2); details: 2 mM
# Method: as §4, §5
# [14] = molecular target: T6, SspB adherence to immobilized salivary agglutinin (Streptococcus gordonii, UniProt A8AUS1); experiment: as above; type: binding, S. gordonii; details: 2 mM
# T6 construct: (39-1433) (NotI) Reverse; made in house; host or cells: pET23d vector
# Method: as §4, §5
# SAG = molecular target: T7, SAG (Homo sapiens, UniProt Q9UGM3); experiment: SPR binding of analytes to immobilized SAG; details: 2 mM, control experiment
# T7 construct: from tissue; host or cells: saliva (purified SAG, gift)
# Method: as §6, §7
# [15] = test system: GbpC (Glucan binding protein C) adherence to immobilized salivary agglutinin; experiment: SPR inhibition of SAG adherence of FL surface protein (Example 2); design: species or system S. mutans; details: 2 mM
# Method: as §4, §5
# [16] = test system: adhesion of AgI/II of S. mutans to iSRCR1; experiment: Adherence/inhibition SPR: AgI/II fragments on immobilized iSRCR1; type: binding
# Method: as §3
# [17] = lower concentrations 0.010 mM-0.500 mM
# T7 sequence (Q9UGM3 20-2413): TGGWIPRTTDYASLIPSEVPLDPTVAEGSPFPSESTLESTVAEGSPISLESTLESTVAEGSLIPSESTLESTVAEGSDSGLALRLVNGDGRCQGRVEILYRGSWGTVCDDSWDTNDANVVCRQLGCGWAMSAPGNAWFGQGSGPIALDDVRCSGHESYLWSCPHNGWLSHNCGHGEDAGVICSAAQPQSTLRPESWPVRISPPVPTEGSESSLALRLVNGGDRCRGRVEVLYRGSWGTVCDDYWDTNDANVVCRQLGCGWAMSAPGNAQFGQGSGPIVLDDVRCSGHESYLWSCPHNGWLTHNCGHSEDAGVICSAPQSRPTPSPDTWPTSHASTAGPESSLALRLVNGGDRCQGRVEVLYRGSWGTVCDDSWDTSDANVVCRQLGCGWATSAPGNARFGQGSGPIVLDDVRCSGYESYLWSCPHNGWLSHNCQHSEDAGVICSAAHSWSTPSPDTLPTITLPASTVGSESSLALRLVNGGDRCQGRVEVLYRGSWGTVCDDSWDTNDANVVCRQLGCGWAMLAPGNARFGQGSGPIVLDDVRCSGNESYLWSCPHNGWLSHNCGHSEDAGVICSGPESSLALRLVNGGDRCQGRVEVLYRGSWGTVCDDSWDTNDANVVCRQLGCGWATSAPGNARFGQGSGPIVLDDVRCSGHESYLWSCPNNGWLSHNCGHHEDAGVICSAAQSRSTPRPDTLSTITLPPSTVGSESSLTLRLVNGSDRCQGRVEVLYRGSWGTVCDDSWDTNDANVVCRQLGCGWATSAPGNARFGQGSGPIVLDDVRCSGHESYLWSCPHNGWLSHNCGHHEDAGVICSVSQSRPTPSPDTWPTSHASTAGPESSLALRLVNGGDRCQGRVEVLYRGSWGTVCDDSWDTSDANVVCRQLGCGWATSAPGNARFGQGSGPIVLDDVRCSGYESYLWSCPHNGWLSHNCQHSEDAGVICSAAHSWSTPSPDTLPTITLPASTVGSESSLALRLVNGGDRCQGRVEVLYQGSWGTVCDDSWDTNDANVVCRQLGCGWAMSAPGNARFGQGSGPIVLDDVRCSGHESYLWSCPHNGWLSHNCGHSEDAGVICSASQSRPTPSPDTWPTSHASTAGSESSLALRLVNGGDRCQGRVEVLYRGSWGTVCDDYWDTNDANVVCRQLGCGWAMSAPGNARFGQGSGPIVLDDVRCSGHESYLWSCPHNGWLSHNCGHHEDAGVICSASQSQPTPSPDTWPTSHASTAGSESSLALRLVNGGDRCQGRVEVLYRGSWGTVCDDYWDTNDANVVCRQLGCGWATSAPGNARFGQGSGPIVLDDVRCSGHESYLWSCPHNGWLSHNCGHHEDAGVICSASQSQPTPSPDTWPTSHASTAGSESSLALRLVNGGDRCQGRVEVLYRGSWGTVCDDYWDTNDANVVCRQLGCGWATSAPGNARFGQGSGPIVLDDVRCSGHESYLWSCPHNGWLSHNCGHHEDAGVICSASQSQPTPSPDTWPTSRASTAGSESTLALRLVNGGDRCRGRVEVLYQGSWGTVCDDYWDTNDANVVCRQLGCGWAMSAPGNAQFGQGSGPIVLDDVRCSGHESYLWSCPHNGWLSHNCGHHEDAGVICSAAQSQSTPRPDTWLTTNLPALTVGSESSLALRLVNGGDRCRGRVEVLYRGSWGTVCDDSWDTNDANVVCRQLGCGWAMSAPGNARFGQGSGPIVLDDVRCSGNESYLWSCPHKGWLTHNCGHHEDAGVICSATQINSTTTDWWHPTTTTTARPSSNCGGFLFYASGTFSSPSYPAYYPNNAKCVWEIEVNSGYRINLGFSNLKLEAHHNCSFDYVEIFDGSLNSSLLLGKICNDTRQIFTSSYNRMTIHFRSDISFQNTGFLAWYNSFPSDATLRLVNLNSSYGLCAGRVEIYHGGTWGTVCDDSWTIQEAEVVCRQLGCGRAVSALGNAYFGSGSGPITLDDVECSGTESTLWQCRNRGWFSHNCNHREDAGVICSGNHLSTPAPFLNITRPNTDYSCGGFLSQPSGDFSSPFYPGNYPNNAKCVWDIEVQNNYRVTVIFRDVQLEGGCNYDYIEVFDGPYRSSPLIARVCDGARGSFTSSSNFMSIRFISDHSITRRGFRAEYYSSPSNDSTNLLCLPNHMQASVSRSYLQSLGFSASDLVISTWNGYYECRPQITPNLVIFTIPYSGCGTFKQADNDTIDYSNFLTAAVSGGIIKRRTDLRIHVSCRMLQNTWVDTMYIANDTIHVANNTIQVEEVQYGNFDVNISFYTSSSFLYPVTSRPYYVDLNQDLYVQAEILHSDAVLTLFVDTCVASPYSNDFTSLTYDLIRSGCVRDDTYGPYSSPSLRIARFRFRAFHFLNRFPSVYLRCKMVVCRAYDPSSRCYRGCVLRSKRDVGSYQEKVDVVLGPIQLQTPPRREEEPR
# T6 sequence (A8AUS1 39-1433): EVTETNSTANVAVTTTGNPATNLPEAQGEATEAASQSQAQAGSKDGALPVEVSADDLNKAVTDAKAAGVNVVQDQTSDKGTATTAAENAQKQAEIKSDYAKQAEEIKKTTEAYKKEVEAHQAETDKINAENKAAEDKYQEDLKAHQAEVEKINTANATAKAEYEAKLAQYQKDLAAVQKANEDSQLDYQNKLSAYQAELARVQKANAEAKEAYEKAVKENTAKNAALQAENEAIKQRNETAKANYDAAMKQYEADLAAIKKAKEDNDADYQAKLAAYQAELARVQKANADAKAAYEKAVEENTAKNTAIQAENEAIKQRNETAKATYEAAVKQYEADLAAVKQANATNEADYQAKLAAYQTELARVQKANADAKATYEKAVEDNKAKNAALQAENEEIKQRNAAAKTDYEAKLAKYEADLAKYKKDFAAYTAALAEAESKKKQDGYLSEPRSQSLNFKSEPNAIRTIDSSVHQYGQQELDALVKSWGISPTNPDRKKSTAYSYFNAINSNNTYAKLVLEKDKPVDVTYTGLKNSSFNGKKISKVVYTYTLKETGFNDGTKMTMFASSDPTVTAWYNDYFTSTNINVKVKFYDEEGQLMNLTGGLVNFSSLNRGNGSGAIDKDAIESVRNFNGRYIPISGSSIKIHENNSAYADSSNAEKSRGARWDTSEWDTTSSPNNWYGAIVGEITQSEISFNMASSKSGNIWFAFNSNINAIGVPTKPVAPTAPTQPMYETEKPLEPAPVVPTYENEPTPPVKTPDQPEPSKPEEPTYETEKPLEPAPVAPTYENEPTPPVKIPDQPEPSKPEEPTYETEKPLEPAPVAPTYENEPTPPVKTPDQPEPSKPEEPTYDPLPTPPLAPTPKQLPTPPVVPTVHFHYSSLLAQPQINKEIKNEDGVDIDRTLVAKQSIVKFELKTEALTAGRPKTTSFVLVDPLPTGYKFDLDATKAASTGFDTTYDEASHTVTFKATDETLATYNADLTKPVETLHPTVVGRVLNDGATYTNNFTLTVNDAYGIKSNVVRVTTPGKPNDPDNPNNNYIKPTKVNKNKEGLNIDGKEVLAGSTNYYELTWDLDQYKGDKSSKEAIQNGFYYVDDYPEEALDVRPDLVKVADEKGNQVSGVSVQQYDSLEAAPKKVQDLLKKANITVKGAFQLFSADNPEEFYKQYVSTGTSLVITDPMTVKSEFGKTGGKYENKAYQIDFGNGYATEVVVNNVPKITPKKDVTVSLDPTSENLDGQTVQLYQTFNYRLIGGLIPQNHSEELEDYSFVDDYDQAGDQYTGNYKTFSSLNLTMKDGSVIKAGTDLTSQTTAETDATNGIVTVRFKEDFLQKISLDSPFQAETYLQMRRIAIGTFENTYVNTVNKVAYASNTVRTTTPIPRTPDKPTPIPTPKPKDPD
# T2 sequence (Q9UGM3 102-202 limits assumed): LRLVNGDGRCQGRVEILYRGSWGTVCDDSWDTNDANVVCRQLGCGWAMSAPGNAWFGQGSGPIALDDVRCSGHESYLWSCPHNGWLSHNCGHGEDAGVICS
# T5 sequence (Q9UGM3 102-463 limits assumed): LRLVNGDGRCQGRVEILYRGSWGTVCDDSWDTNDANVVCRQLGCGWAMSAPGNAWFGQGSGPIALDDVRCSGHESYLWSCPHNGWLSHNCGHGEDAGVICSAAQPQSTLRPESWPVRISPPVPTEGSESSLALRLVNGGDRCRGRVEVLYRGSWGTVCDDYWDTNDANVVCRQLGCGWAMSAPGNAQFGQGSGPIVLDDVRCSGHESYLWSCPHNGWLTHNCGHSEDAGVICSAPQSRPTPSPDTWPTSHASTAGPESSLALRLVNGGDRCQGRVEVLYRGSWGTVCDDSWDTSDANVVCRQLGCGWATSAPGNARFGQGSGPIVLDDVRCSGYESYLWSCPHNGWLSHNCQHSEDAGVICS
molecule,measurement,setting,value
"iSRCR1: recombinant single SRCR domain construct of Gp340 (15 kDa), Drosophila expression system",percentage of cells aggregated,S. mutans UA159 [1],17%
same,percentage of cells aggregated,S. gordonii DL1 [2],13%
same,Tm,[3],56.5 °C
same,increase in fluorescence intensity compared to the control,S. mutans UA159 [4],10 fold
same,adherence by FACS (in words),S. gordonii DL1 [5],lower adherence
same,binding to cells by confocal microscopy (in words),S. mutans UA159 [6],binding
CC(=O)N[C@H]1C(O)O[C@H](CO)[C@H](O)[C@@H]1O[C@@H]1O[C@H](CO)[C@H](O)[C@H](O)[C@H]1O (stereo partly drawn) [Galβ1-3-GalNac],inhibition of adhesion of A3VP1^SspB to iSRCR123,"[7]; 1.0 mM, 2 μM protein",60%
same,inhibition of adhesion of C123^SspB to iSRCR123,"[7]; 1.0 mM, 2 μM protein",40%
same,inhibition of adhesion of FL^SspB to iSRCR123,"[7]; 1.0 mM, 2 μM protein",37%
same,effect on adhesion of all SspB fragments with iSRCR123 (in words),[7]; [17],enhanced the adhesion
same,inhibition of SAG adherence of AgI/II,[8],94%
same,direct binding to immobilized iSRCR1 (in words),iSRCR1,did not have any interactions
same,inhibition of adhesion of A3VP1^SspB to iSRCR1,[9],61%
same,inhibition of adhesion of C123^SspB to iSRCR1,[9],32%
same,inhibition of adhesion of FL^SspB to iSRCR1,[9],64%
same,effect on adhesion of all SspB fragments with iSRCR1 (in words),[10],enhanced the adhesion
same,inhibition of SAG adherence of Pas,[11],28%
same,inhibition of adhesion of A3VP1^AgI/II to iSRCR123,"[12]; 1.0 mM, 2 μM protein",75%
same,inhibition of adhesion of C123^AgI/II to iSRCR123,"[12]; 1.0 mM, 2 μM protein",47%
same,inhibition of adhesion of FL^AgI/II to iSRCR123,"[12]; 1.0 mM, 2 μM protein",73%
same,effect on adhesion of all AgI/II fragments with iSRCR123 (in words),[12]; [17],enhanced the adhesion
same,direct binding to immobilized iSRCR123 (in words),iSRCR123,did not have any interactions
same,inhibition of SAG adherence of rcnM,[13],69%
same,inhibition of SAG adherence of SspB,[14],65%
same,direct adherence to SAG (in words),SAG,did not show direct adherence
same,inhibition of SAG adherence of GBPC,[15],72%
same,inhibition of adhesion of A3VP1^AgI/II to iSRCR1,"[16]; 1.0 mM, 2 μM protein",79%
same,inhibition of adhesion of C123^AgI/II to iSRCR1,"[16]; 1.0 mM, 2 μM protein",73%
same,inhibition of adhesion of FL^AgI/II to iSRCR1,"[16]; 1.0 mM, 2 μM protein",85%
same,effect on adhesion of all AgI/II fragments with iSRCR1 (in words),[16]; [17],enhanced the adhesion
